Paper PMC12592420, “A mismatch in enzyme-redox partnerships underlies divergent cytochrome P450 activities between human hepatocytes and microsomes” (Communications Biology, 2025)
Several values for one entry are separate records, joined by “and”; a condition that tells them apart may be missing. Equal entries are not always repeated.

How the values were obtained:
rat hepatocytes = experiment: Free fraction in rat hepatocytes as surrogate for HH, equilibrium dialysis; type: in vitro ADME; settings: fraction unbound, measured or estimated by in silico models of Fuinc
[1] = Intrinsic permeability in Caco-2 cells with efflux inhibited; settings: human, Caco-2
[2] = CLint in NADH-supplemented human liver microsomes; settings: human, pH 7.4
Protocol: (§1) Calculation and scaling of CLint,u was done using the equation below and 45 mg of microsomal protein per gram of liver. HLMCLint,u=ln2/x1/t1/2(min)xmLincubation/mgmicrosomalproteinx45mgmicrosomalprotein/gliverx21gliver/kg/Fuinc

[3] = Free fraction in HLM incubation, equilibrium dialysis; type: in vitro ADME, human; settings: fraction unbound, measured or estimated by in silico models of Fuinc
[4] = CLint in NADPH-supplemented human liver microsomes; settings: for microsomal CLint at 1 µM / CLint scaled at 1 µM: human; for microsomal CLint at 1 µM: pH 7.4; for HLM/HH (ratio of scaled CLint,u): NADPH-HLM average over HH average
Protocol: as §1

[5] = LogD pH 7.4, octanol/phosphate buffer; settings: for logD: octanol/phosphate buffer, pH 7.4
in vitro = settings: human, hepatocytes; for hepatocyte CLint / hepatocyte CLint at 1 µM: both
Protocol: (§2) Cryopreserved HH prepared from a mixed-gender pool of twenty donors (product X008000, lot EEO, BIOIVT), ten-donors (product S01205, lot MTJ, BIOIVT), ten donors (product S01205 lot LYB, BIOIVT) were utilised in the experiments. Cryopreserved HH were rapidly thawed in a water bath set at 37 °C and added to Leibovitz media that had been pre-warmed in the water bath. The suspension of cells was mixed gently and centrifuged at 40 × g for 4 min at room temperature. Excess media was removed, and the cells were re-suspended in 5 mL of fresh Leibovitz media. The cells were counted using an automated cell counter (Cellometer).

human hepatocytes (HH) = experiment: in vitro; settings: HH, individual determinations 1-3, Fig. 1
Protocol: as §2

[6] = human liver microsomes, pH 7.4, NADPH_HLM_scaled_CLint,u, Fig. 4a,d
[7] = HH_CLint, 1 µM, single determination, Fig. 4a
[8] = microsomes, pH 7.4, NADPH_HLM_scaled_CLint,u, Fig. 4a,d
[9] = NADPH-HLM, individual determinations 1-3, Fig. 1
[10] = human liver microsomes + NADPH, pH 7.4, Scaled HLM CLint,u, NADPH-HLM, individual determinations 1-3, Fig. 1
[11] = human liver microsomes, pH 7.4, Scaled HLM CLint,u average, NADPH-HLM, average, Fig. 1
[12] = Scaled HH CLint,u average, HH, average, Fig. 1
[13] = Scaled HH CLint,u, HH, individual determinations 1-3, Fig. 1

SMILES | fu_ratHH (rat hepatocytes) | Papp at 2 h, 10 µM [1] | microsomal CLint at 1 µM ([2]; human liver microsomes + NADH) | CLint scaled at 1 µM ([2]; human liver microsomes) | fu_HLM [3] | microsomal CLint at 1 µM ([4]; human liver microsomes + NADPH) | CLint scaled at 1 µM [4, 6] | CLint scaled (in vitro; HH_scaled_CLint,u, Fig. 4a) | logD [5] | hepatocyte CLint at 1 µM (in vitro) | CLint scaled at 1 µM (in vitro; HH_scaled_CLint,u) | other results
CN1CCC(n2cc(Nc3nc(OC4(C)CC4)c4nc(-c5cncnc5)c(F)cc4n3)cn2)CC1 [AZ15] | 0.672 | 31.7 ×10⁻⁶ cm/s | 15 µL/min/mg | 23.7 mL/min/kg | 0.599 | 100 µL/min/mg | 158 mL/min/kg | 51.8 mL/min/kg |  |  |  | LogD pH 7.4 ([5]; at least one determination): 2.3; hepatocyte CLint (in vitro; [7]): 13.8 µL/min/1e6 cells
C=CCn1c(=O)c2cnc(Nc3ccc(N4CCN(C)CC4)cc3)nc2n1-c1cccc(C(C)(C)O)n1 [Adavosertib] | 0.415 | 12.7 ×10⁻⁶ cm/s | 14.6 µL/min/mg | 33.2 mL/min/kg | 0.415 | 72.3 µL/min/mg | 165 mL/min/kg | 12 mL/min/kg | 2.37 |  |  | hepatocyte CLint (in vitro): 1.97 µL/min/1e6 cells
CCN(CC)Cc1cc(Nc2ccnc3cc(Cl)ccc23)ccc1O [Amodiaquine] | 0.101 | 15.1 ×10⁻⁶ cm/s | 217 µL/min/mg | 2030 mL/min/kg | 0.101 | 379 µL/min/mg | 3540 mL/min/kg |  | 2.9 | 99 µL/min/1e6 cells | 2470 mL/min/kg | 
CN(C)CCCOc1nn(Cc2ccccc2)c2ccccc12 [Benzydamine] | 0.643 | 27.4 ×10⁻⁶ cm/s | 3 µL/min/mg | 7.96 mL/min/kg | 0.356 | 21.1 µL/min/mg | 56 mL/min/kg |  | 2.25 | 6.69 µL/min/1e6 cells | 26.2 mL/min/kg | 
O=C(O)Cc1ccccc1Nc1c(Cl)cccc1Cl [Diclofenac] | 0.539 | 118 ×10⁻⁶ cm/s |  | 51.8 mL/min/kg | 0.841 |  | 242 mL/min/kg |  | 1.07 | 79.5 µL/min/1e6 cells | 372 mL/min/kg | 
O=C(O)c1cc(-c2ccc(F)cc2F)ccc1O [Diflunisal] | 0.525 | 129 ×10⁻⁶ cm/s |  |  | 0.81 |  |  |  | 0.574 | 4.29 µL/min/1e6 cells | 20.6 mL/min/kg | CLint scaled at 1 µM ([2]; microsomes): 3.5 mL/min/kg; microsomal CLint at 1 µM ([2]; microsomes): 3 µL/min/mg; microsomal CLint at 1 µM ([4]; microsomes): 5.28 µL/min/mg; CLint scaled at 1 µM [4, 8]: 6.16 mL/min/kg
O=C(c1ccc(F)cc1)C1CCN(CCn2c(=O)[nH]c3ccccc3c2=O)CC1 [Ketanserin] | 0.659 | 32.7 ×10⁻⁶ cm/s | 5.6 µL/min/mg | 9.6 mL/min/kg | 0.551 | 15.8 µL/min/mg | 27 mL/min/kg | 74.6 mL/min/kg |  |  |  | hepatocyte CLint (in vitro): 19.5 µL/min/1e6 cells
COCCc1ccc(OCC(O)CNC(C)C)cc1 (stereo not shown) [Metoprolol] | 0.923 | 19.5 ×10⁻⁶ cm/s | 3 µL/min/mg | 3.02 mL/min/kg | 0.939 | 4.05 µL/min/mg | 4.08 mL/min/kg | 8.49 mL/min/kg | < -0.19 |  |  | hepatocyte CLint (in vitro): 3.11 µL/min/1e6 cells
C=CCN1CC[C@]23c4c5ccc(O)c4O[C@H]2C(=O)CC[C@@]3(O)[C@H]1C5 [Naloxone] | 0.895 | 11.9 ×10⁻⁶ cm/s |  |  | 0.969 |  |  | 83.2 mL/min/kg |  |  |  | CLint scaled at 1 µM ([2]; microsomes): 2.93 mL/min/kg; microsomal CLint at 1 µM ([2]; microsomes): 3 µL/min/mg; microsomal CLint at 1 µM ([4]; microsomes): 7.57 µL/min/mg; CLint scaled at 1 µM [4, 8]: 7.38 mL/min/kg; hepatocyte CLint (in vitro; [7]): 29.6 µL/min/1e6 cells
COc1cc2nc(N3CCN(C(=O)c4ccco4)CC3)nc(N)c2cc1OC [Prazosin] |  | 34.6 ×10⁻⁶ cm/s |  |  |  |  |  |  |  |  |  | 
C[C@]12C=CC(=O)C=C1CC[C@@H]1[C@@H]2[C@@H](O)C[C@@]2(C)[C@H]1CC[C@]2(O)C(=O)CO [Prednisolone] |  |  |  |  |  |  |  |  |  |  |  | HLM/HH (ratio of scaled CLint,u) ([4]; Fig. 1): 2.917; Scaled HLM CLint,u [4, 9]: 38.7639 mL/min/kg; CLint scaled at 1 µM [4, 10]: 40.8 mL/min/kg; CLint scaled at 1 µM [4, 11]: 40.1 mL/min/kg; Scaled HH CLint,u (human hepatocytes (HH)): 12.4648 mL/min/kg and 14.0629 mL/min/kg; CLint scaled (in vitro; [12]): 13.7 mL/min/kg; CLint scaled (in vitro; [13]): 14.7 mL/min/kg
C[C@]12C=CC(=O)C=C1CC[C@@H]1[C@@H]2C(=O)C[C@@]2(C)[C@H]1CC[C@]2(O)C(=O)CO [Prednisone] |  |  |  |  |  |  |  |  |  |  |  | HLM/HH (ratio of scaled CLint,u) ([4]; Fig. 1): 0.4866; Scaled HLM CLint,u [4, 9]: 26.9421 mL/min/kg and 25.4228 mL/min/kg; CLint scaled at 1 µM [4, 10]: 29.8 mL/min/kg; CLint scaled at 1 µM [4, 11]: 27.4 mL/min/kg; Scaled HH CLint,u (human hepatocytes (HH)): 43.6458 mL/min/kg and 52.3108 mL/min/kg; CLint scaled (in vitro; [12]): 56.3 mL/min/kg; CLint scaled (in vitro; [13]): 72.8 mL/min/kg
CC(C)NCC(O)COc1cccc2ccccc12 (stereo not shown) [Propanolol] |  | 45.4 ×10⁻⁶ cm/s |  |  |  |  |  |  |  |  |  | 
CCN(C(=O)c1cc(F)ccc1Oc1cncnc1N1CC2(CCN(C[C@H]3CC[C@H](NS(=O)(=O)CC)CC3)CC2)C1)C(C)C [Revumenib] | 0.721 | 1.65 ×10⁻⁶ cm/s | 34.9 µL/min/mg | 40.2 mL/min/kg | 0.819 | 161 µL/min/mg | 186 mL/min/kg |  | 1.41 | 2.92 µL/min/1e6 cells | 10.2 mL/min/kg | 
CCCc1nn(C)c2c(=O)[nH]c(-c3cc(S(=O)(=O)N4CCN(C)CC4)ccc3OCC)nc12 [Sildenafil] | 0.633 | 66 ×10⁻⁶ cm/s | 29.1 µL/min/mg | 43.1 mL/min/kg | 0.638 | 134 µL/min/mg | 199 mL/min/kg | 57.7 mL/min/kg | 2.74 |  |  | hepatocyte CLint (in vitro): 14.5 µL/min/1e6 cells
Cc1c(C)c2c(c(C)c1O)CCC(C)(COc1ccc(CC3SC(=O)NC3=O)cc1)O2 (stereo not shown) [Troglitazone] | 0.05 |  | 3 µL/min/mg | 39.9 mL/min/kg | 0.071 | 57.2 µL/min/mg | 761 mL/min/kg |  | 4.25 | 26.8 µL/min/1e6 cells | 1350 mL/min/kg | 
CC[C@@H]1[C@H](F)C(=O)N[C@@H]1COc1nccc2cc(C(N)=O)c(OC)cc12 [Zimlovisertib] | 0.817 | 31.7 ×10⁻⁶ cm/s |  |  | 0.817 |  |  | 18 mL/min/kg | 1.98 |  |  | CLint scaled at 1 µM ([2]; microsomes): 8.09 mL/min/kg; CLint scaled at 1 µM ([4]; microsomes, pH 7.4, NADPH_HLM_scaled_CLint,u): 46.5 mL/min/kg; hepatocyte CLint (in vitro; [7]): 5.84 µL/min/1e6 cells
